Test results from US12269831B2, “Modulators of cystic fibrosis transmembrane conductance regulator” (Vertex Pharmaceuticals Incorporated, priority 2020, dated 2025).
Read-outs that look alike come from different tables or passages of the source.

Details: rcm bond, 14-membered ring, DCE

C[C@@H]1CCC=CC(F)(F)C(OCc2ccccc2)C2=NN=C(O2)c2nc(c(C(F)(F)F)cc2[N+](=O)[O-])O1 (mixture of isomers) showed a ring closure, isolated yield (from C=CCC[C@@H](C)Oc1nc(-c2nnc(C(OCc3ccccc3)C(F)(F)C=C)o2)c([N+](=O)[O-])cc1C(F)(F)F, Grubbs II, 1.8 mM, 75.0 °C, 0.92 h) of 30%.
In the case of CC(C)C1CC=CCC[C@](OCc2ccccc2)(C(F)(F)F)C2=NN=C(O2)c2nc(c(C(F)(F)F)cc2N(C(=O)OC(C)(C)C)C(=O)OC(C)(C)C)O1 (mixture of isomers), the ring closure, isolated yield (from C=CCC[C@@](OCc1ccccc1)(c1nnc(-c2nc(OC(CC=C)C(C)C)c(C(F)(F)F)cc2N(C(=O)OC(C)(C)C)C(=O)OC(C)(C)C)o1)C(F)(F)F, Zhan-1B, 2.09 mM, 60.0 °C, 6.0 h) is reported as 61%.
CC(C)(C)OC(=O)Nc1cc(C(F)(F)F)c2nc1-c1nnc(o1)[C@@](OCc1ccccc1)(C(F)(F)F)CC=CCCCO2 (mixture of isomers) gave a ring closure, isolated yield (from C=CCCCOc1nc(-c2nnc([C@@](CC=C)(OCc3ccccc3)C(F)(F)F)o2)c(NC(=O)OC(C)(C)C)cc1C(F)(F)F, Zhan-1B, 6.7 mM, 60.0 °C, 4.0 h) of 65%.
